Counter-ions that a name gives are not always drawn.
molecular target: T1, GP IIb IIIa (Homo sapiens, UniProt P05106+P08514); experiment: Fibrinogen-GP IIb IIIa Receptor ELISA Binding Assay (Fg/IIbIIIa); conditions: Example 29, Cmpd # 1-105; read-out: IC50 Fg/IIbI
T1 construct: from tissue; host or cells: outdated human platelets
Protocol: Briefly, microtiter plates are coated with fibrinogen (10 mg/ml) and then blocked with TACTS buffer containing 0.5% bovine serum albumin (BSA). […] After another wash a goat anti-mouse IgG conjugated to horseradish peroxidase is added. […] The reaction is stopped with 1N sulfuric acid and the absorbance at 492 nm is recorded. […] Outdated human platelets are washed 3 times with 10 mM tris-HCl, 150 mM NaCl (TBS), 1 mM EDTA, pH 7.5, and centrifuged at 2000×g to pellet cells. […] The supernatant fraction is collected and the supernatant is loaded onto a concanavalin-A column, previously equilibrated in TBS, 1 mM Ca2 Cl2, 0.1% Triton, 0.05% NaN3 and eluted with 0.2M a-methylmannoside. Fractions are pooled and loaded onto a heparin-agarose column. The flowthrough is collected and concentrated on an Amicon YM 30 filter to a volume of approximately 5-10 ml. The concentrate is then applied to an S-300 column (500 ml) and 6 ml fractions are collected. The GP IIb IIIa containing fractions are collected, pooled, and stored at -80° C. […] The precipitate is spun down in appropriate size bottles at 2000×g. The supernatant is decanted and the precipitate resuspended in 150 mM NaCl (approximately 50% of the original volume). […] The suspension is spun down and the precipitate is resuspended in Tris-saline in a minimal volume (approximately 5% of the original volume). Any remaining insoluble material is spun down at 2000 rpm in a Sorval type centrifuge and the fibrinogen supernatant is decanted and dialyzed overnight at 4° C. against Tris-saline. Characterization of the fibrinogen is by the Bradford protein assay, SDS-PAGE, and/or Western blotting using well known standard procedures. Briefly, 96 well plates are coated (Type Nunc 1 MaxisorpTM) with 10 mg/ml purified fibrinogen ([…]), and allowed to stand overnight at 4° C. […] The plates are again washed three times with PBS/Tween and then […] of sample in TNCNT is added. The mixture is incubated for 15 minutes at room temperature on a plate shaker. […] Fifty ml of this diluted GP IIb IIIa is then added to each well and incubated on a plate shaker at room temperature. After one hour, the plates are washed four times with PBS/Tween and 100 ml of a polyclonal or monoclonal antibody specific for GP IIIa such as AP3 (1 mg/ml) (See e.g. […] After a one hour incubation at room temperature on a plate shaker, the samples are washed 4 times with PBS/Tween. […] The color develops within about 3 to 20 minutes and the reaction is stopped with 100 ml 1M H2 SO4. The optical density at 492 nm vs 405 nm is recorded and IC50 values are determined.

T1 sequence (P08514 32-887 limits assumed): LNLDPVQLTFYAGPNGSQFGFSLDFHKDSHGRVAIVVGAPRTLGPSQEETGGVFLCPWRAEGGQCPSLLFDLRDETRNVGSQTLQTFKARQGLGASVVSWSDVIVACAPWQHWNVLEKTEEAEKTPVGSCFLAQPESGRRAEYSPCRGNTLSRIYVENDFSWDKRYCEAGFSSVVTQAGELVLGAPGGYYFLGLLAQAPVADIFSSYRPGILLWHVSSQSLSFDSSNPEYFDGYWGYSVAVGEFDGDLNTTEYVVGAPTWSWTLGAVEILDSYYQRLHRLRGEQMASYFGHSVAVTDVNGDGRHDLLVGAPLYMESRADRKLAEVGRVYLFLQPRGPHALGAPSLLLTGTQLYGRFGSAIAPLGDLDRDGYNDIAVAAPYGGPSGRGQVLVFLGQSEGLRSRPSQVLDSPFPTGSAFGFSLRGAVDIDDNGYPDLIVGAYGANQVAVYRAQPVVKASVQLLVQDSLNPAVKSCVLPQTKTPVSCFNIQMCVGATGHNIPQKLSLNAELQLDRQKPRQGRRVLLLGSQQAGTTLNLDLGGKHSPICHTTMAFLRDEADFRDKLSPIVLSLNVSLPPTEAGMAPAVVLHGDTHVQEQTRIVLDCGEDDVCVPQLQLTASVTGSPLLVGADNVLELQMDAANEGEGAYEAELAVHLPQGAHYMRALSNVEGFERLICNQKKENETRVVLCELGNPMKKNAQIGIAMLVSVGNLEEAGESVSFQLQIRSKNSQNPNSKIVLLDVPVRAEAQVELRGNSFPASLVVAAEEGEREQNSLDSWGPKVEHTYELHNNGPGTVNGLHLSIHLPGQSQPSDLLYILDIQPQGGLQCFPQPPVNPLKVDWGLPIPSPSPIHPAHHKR
T1 sequence (P08514 891-1039 partner limits assumed): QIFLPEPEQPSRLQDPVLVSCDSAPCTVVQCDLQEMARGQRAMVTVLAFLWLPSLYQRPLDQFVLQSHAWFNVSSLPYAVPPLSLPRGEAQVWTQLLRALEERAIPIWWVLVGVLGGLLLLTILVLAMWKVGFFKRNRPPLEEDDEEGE
T1 sequence (P05106 27-788): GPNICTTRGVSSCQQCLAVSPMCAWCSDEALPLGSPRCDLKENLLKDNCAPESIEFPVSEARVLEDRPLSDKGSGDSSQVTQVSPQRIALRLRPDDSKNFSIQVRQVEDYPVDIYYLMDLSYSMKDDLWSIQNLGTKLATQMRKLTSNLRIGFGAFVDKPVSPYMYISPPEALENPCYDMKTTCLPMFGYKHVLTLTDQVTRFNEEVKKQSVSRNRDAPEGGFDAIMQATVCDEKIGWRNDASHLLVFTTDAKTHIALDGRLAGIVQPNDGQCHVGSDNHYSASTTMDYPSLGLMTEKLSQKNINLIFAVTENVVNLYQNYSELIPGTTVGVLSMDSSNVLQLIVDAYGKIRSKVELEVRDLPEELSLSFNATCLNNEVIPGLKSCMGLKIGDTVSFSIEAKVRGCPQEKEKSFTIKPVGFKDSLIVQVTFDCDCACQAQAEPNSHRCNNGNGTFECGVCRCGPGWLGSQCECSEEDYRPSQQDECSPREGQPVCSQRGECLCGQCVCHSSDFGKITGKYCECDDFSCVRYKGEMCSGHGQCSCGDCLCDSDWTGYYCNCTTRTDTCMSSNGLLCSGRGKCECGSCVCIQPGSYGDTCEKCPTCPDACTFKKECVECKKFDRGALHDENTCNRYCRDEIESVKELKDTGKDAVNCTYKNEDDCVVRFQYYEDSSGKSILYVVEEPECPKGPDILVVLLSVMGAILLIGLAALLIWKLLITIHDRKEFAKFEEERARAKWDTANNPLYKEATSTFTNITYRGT

| IC50 | Compound |
| --- | --- |
| 0.014 µM | N=C(N)NCCCCCc1ccc2c(c1)C(=O)N(CCC(=O)O)CC(=O)N2Cc1ccc(C(F)(F)F)cc1 [Cmpd 93, 1-(p-trifluoromethylbenzyl)-4-(2-carboxyethyl)-7-(5-guanidinopentyl)-3,4-dihydro-1H-1,4-benzodiazepine-2,5-dione trifluoroacetate] |
| 0.009 µM | NCCCCCCc1ccc2c(c1)C(=O)N(CCC(=O)O)CC(=O)N2Cc1cccc(Oc2ccccc2)c1 [Cmpd 94, 1-(m-phenoxybenzyl)-4-(2-carboxyethyl)-7-(6-aminohexyl)-3,4-dihydro-1H-1,4-benzodiazepine-2,5-dione trifluoroacetate] |
| 0.108 µM | NCCCCCc1ccc2c(c1)C(=O)N(CCC(=O)O)CC(=O)N2Cc1cccc(Oc2ccccc2)c1 [Cmpd 95, 1-(m-phenoxybenzyl)-4-(2-carboxyethyl)-7-(5-aminopentyl)-3,4-dihydro-1H-1,4-benzodiazepine-2,5-dione trifluoroacetate] |
| 0.186 µM | NCCCCCc1ccc2c(c1)C(=O)N(CCC(=O)O)CC(=O)N2Cc1ccc(C(F)(F)F)cc1 [Cmpd 96, 1-(p-trifluoromethylbenzyl)-4-(2-carboxyethyl)-7-(5-aminopentyl)-3,4-dihydro-1H-1,4-benzodiazepine-2,5-dione trifluoroacetate] |
| 0.13 µM | NCCCC#Cc1ccc2c(c1)C(=O)N(CCC(=O)O)CC(=O)N2Cc1ccc(F)cc1F [Cmpd 97] |
| 0.024 µM | N=C(N)NCCCC#Cc1ccc2c(c1)C(=O)N(CCC(=O)O)CC(=O)N2Cc1ccc(F)cc1F [Cmpd 98] |
| 0.027 µM | NCCCCC#Cc1ccc2c(c1)C(=O)N(CCC(=O)O)CC(=O)N2Cc1ccc(F)cc1F [Cmpd 99] |
| 0.025 µM | N=C(N)NCCCCC#Cc1ccc2c(c1)C(=O)N(CCC(=O)O)CC(=O)N2Cc1ccc(F)cc1F [Cmpd 100] |
| 0.2 µM | NCCCCCc1ccc2c(c1)C(=O)N(CCC(=O)O)CC(=O)N2Cc1ccc(F)cc1F [Cmpd 101] |
| 0.016 µM | N=C(N)NCCCCCc1ccc2c(c1)C(=O)N(CCC(=O)O)CC(=O)N2Cc1ccc(F)cc1F [Cmpd 102] |
| 0.021 µM | NCCCCCCc1ccc2c(c1)C(=O)N(CCC(=O)O)CC(=O)N2Cc1ccc(F)cc1F [Cmpd 103, 1-(2,4-difluorophenyl)methyl-4-(2-carboxyethyl)-7-(6-aminohexyl)-3,4-dihydro-1H-1,4-benzodiazapine-2,5-dione] |
| 0.038 µM | N=C(N)NCCCCCCc1ccc2c(c1)C(=O)N(CCC(=O)O)CC(=O)N2Cc1ccc(F)cc1F [Cmpd 104] |
| 8.5 µM | CC(=O)NCCCCCCc1ccc2c(c1)C(=O)N(CCC(=O)O)CC(=O)N2Cc1ccc(Cl)cc1 [Cmpd 105] |

same assay, conditions: Examples 29 and 30, Cmpd # tables; read-out: IC50 (μM) Fg/IIbIIIa

| IC50 | Compound |
| --- | --- |
| 0.068 µM | NCCCC#Cc1ccc2c(c1)C(=O)N(CCC(=O)O)CC(=O)N2Cc1cccc(NC(=O)CN)c1 [Cmpd 106] |
| 0.019 µM | NCCCCCCc1ccc2c(c1)C(=O)N(CCC(=O)O)CC(=O)N2Cc1ccc(NC(=O)CCN)cc1 [Cmpd 118] |
| 0.013 µM | N=C(N)NCCCCCCc1ccc2c(c1)C(=O)N(CCC(=O)O)CC(=O)N2Cc1ccc(NC(=O)CCNC(=N)N)cc1 [Cmpd 119] |
| 0.024 µM | NCCCCCCc1ccc2c(c1)C(=O)N(CCC(=O)O)CC(=O)N2Cc1cccc(CCCCN)c1 [Cmpd 120] |
| 0.02 µM | N=C(N)NCCCCCCc1ccc2c(c1)C(=O)N(CCC(=O)O)CC(=O)N2Cc1cccc(CCCCNC(=N)N)c1 [Cmpd 121] |
| 0.064 µM | NCCCCCCc1ccc2c(c1)C(=O)N(CCC(=O)O)CC(=O)N2CCCCCN [Cmpd 125] |
| 0.04 µM | N=C(N)NCCCCCCc1ccc2c(c1)C(=O)N(CCC(=O)O)CC(=O)N2CCCCCNC(=N)N [Cmpd 126] |
| 0.024 µM | NCCCCCCc1ccc2c(c1)C(=O)N(CCC(=O)O)CC(=O)N2Cc1ccc(N)cc1 [Cmpd 128] |
| 0.014 µM | N=C(N)NCCCCCc1ccc2c(c1)C(=O)N(CCC(=O)O)CC(=O)N2CCCCC(=O)O [Cmpd 131] |
| 0.931 µM | NCCCCCc1ccc2c(c1)C(=O)N(CCC(=O)O)CC(=O)N2CCCCC(=O)O [Cmpd 132] |
| 0.016 µM | N=C(N)NCCCCCc1ccc2c(c1)C(=O)N(CCC(=O)O)CC(=O)N2Cc1ccc(C(=O)O)cc1 [Cmpd 133] |
| 0.019 µM | N=C(N)NCCCCCCc1ccc2c(c1)C(=O)N(CCC(=O)O)CC(=O)N2Cc1ccc(C(=O)O)cc1 [Cmpd 134] |
| 0.008 µM | NCCCCCCc1ccc2c(c1)C(=O)N(CCC(=O)O)CC(=O)N2Cc1ccc(C(=O)O)cc1 [Cmpd 135, 1-(4-carboxyphenyl)methyl-4-(2-carboxyethyl)-7-(6-aminohexyl)-3,4-dihydro-1H-1,4-benzodiazapine-2,5-dione] |
| 0.176 µM | NCCCCCc1ccc2c(c1)C(=O)N(CCC(=O)O)CC(=O)N2Cc1ccc(C(=O)O)cc1 [Cmpd 136] |
| 0.351 µM | CN1C(=O)CN(CCC(=O)O)C(=O)c2cc3cc(C#CCN)ccc3cc21 [Cmpd 137, 1-methyl-4-(2-carboxyethyl)-8-(3-amino-1-propynyl)-3,4-dihydro 1H-1,4-napthodiazepine-2,4-dione trifluoracetate] |
| 0.009 µM | CN1C(=O)CN(CCC(=O)O)C(=O)c2cc3cc(C#CCNC(=N)N)ccc3cc21 [Cmpd 138, 1-Methyl-4-(carboxyethyl)-8-(3-guanidino-1-propynyl)-3,4-dihydro-1H-1,4-naphthodiazepine-2,5-dione] |
| 0.153 µM | CN1C(=O)CN(CCC(=O)O)C(=O)c2cc3cc(CCCCN)ccc3cc21 [Cmpd 139] |
| 0.069 µM | CN1C(=O)CN(CCC(=O)O)C(=O)c2cc3cc(CCCCNC(=N)N)ccc3cc21 [Cmpd 140] |

| IC50 | Compound |
| --- | --- |
| 1.8 µM | CN1C(=O)CN(CCC(=O)O)C(=O)c2cc3c(cc21)CCC(CCCN)C3 (stereo not shown) [Cmpd 141, 1-Methyl-4-(carboxyethyl)-8-(3-amino-1-propyl)-3,4,7,8,9,10-hexahydrohydro-1H-1,4-naphthodiazepine-2,5-dione] |
| 0.068 µM | CN1C(=O)CN(CCC(=O)O)C(=O)c2cc3c(cc21)CCC(CCCNC(=N)N)C3 (stereo not shown) [Cmpd 142] |
| 0.048 µM | CN1C(=O)CN(CCC(=O)O)C(=O)c2cc3c(cc21)CCC(CCCCN)C3 (stereo not shown) [Cmpd 143] |
| 12 µM | NCCCC#Cc1ccc2c(c1)C(=O)N(CCC(=O)O)CCO2 [Cmpd 144] |
| 4 µM | N=C(N)NCCCC#Cc1ccc2c(c1)C(=O)N(CCC(=O)O)CCO2 [Cmpd 145] |
| 80 µM | NCCCCCc1ccc2c(c1)C(=O)N(CCC(=O)O)CCO2 [Cmpd 146] |
| 3 µM | N=C(N)NCCCCCc1ccc2c(c1)C(=O)N(CCC(=O)O)CCO2 [Cmpd 147] |
| 5.9 µM | NCCCC#Cc1ccc2c(c1)C(=O)N(CCC(=O)O)CC(Cc1ccccc1)O2 (stereo not shown) [Cmpd 148] |
| 0.823 µM | N=C(N)NCCCC#Cc1ccc2c(c1)C(=O)N(CCC(=O)O)CC(Cc1ccccc1)O2 (stereo not shown) [Cmpd 149] |
| 0.119 µM | NCCOc1ccc(-c2ccc3c(c2)C(=O)N(CCC(=O)O)CC(Cc2ccccc2)O3)cc1 (stereo not shown) [Cmpd 150, trifluoroacetate] |
| > 100 µM | NCCCCCCCCOc1ccc2c(c1)C(=O)N(CCC(=O)O)CCC2 [Cmpd 151, 2-(2-carboxyethyl)-8-(8-aminooctyloxy)-2,3,4,5-tetrahydro-1H-2-benzazepin-1-one trifluoroacetate] |
| 50 µM | N=C(N)NCCCCCCCCOc1ccc2c(c1)C(=O)N(CCC(=O)O)CCC2 [Cmpd 152, 2-(2-carboxyethyl)-8-(8-guanadinooctyloxy)-2,3,4,5-tetrahydro-1H-2-benzazepin-1-one trifluoroacetate] |
| > 100 µM | NCCCC#Cc1ccc2c(c1)C(=O)N(CCC(=O)O)CCC2 [Cmpd 153, 2-(2-carboxyethyl)-8-(5-aminopentynyl)-2,3,4,5-tetrahydro-1H-2-benzazepin-1-one trifluoroacetate] |
| 20 µM | N=C(N)NCCCC#Cc1ccc2c(c1)C(=O)N(CCC(=O)O)CCC2 [Cmpd 154, 2-(2-carboxyethyl)-8-(5-guanidinopentynyl)-2,3,4,5-tetrahydro-1H-2-benzazepin-1-one trifluoroacetate] |
| > 100 µM | NCCCCCc1ccc2c(c1)C(=O)N(CCC(=O)O)CCC2 [Cmpd 155] |
| ~100 µM | N=C(N)NCCCCCc1ccc2c(c1)C(=O)N(CCC(=O)O)CCC2 [Cmpd 156] |
| 0.137 µM | N=C(N)c1ccc(COc2ccc3c(c2)C(=O)N(CCC(=O)O)CCC3)cc1 [Cmpd 157, 2-(2-carboxyethyl)-8-(4-amidinobenzyloxy)-2,3,4,5-tetrahydro-1H-2-benzazepin-1-one trifluoroacetate] |
| 2.3 µM | N=C(N)NCCCc1cccc(C(=O)NCCC(=O)O)c1 [Cmpd 158] |

Reference: patent publication US5250679A, “Nonpeptidyl platelet aggregation inhibitors having specificity for the GPIIb III receptor” (Genentech, Inc., priority 1992, dated 1993)
